Measurements taken from patent US10208034B2, “Quinoline derivative” (ONO PHARMACEUTICAL CO., LTD., priority 2014, dated 2019).

Tests used:
Axl enzyme = target: T1, Axl enzyme (Homo sapiens, UniProt P30530); assay: Measurement of Axl inhibitory activity (LanthaScreen TR-FRET, in vitro test); type: biochemical; settings: Fluorescein-Poly GT substrate
T1 sequence (P30530 26-894): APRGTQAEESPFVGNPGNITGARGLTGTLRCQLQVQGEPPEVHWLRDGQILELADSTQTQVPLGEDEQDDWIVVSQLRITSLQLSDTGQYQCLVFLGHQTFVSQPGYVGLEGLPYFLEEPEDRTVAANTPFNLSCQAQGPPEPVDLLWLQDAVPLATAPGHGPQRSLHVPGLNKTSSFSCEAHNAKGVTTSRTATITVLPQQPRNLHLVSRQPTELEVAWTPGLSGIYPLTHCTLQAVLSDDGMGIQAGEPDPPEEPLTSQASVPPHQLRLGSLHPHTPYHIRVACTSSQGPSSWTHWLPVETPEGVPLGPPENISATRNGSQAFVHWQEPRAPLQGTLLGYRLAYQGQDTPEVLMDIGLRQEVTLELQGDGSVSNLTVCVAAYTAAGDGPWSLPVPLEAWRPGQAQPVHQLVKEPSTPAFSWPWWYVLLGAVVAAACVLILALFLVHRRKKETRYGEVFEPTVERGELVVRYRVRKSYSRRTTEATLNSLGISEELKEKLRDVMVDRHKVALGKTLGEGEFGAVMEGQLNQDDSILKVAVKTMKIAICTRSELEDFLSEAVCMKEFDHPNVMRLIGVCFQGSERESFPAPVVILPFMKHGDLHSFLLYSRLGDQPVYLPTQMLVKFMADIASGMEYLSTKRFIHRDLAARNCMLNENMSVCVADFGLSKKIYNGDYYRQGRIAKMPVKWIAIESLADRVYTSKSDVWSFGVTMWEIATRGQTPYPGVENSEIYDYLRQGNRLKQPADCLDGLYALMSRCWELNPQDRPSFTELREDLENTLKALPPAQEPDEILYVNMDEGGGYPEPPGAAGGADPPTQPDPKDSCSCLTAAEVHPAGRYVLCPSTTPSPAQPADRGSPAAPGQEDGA
Procedure: Axl enzyme inhibitory activity was measured by using LanthaScreen (registered trademark) system (Invitrogen) based on the attached instruction. The reagents used are shown below.
Reaction buffer solution: a solution containing 50 mmol/L HEPES (pH7.5), 0.01% Brij35, 10 mmol/L MgCl2 and 1 mmol/L EGTA was prepared by using purified water.
Test substance solution: a solution containing a test compound of 5-fold concentration with respect to the final concentration was prepared by 20-fold diluting a DMSO solution of test compound of each concentration with the reaction buffer solution.
Enzyme solution: a solution containing 400 ng/mL Axl enzyme was prepared by using the reaction buffer solution.
Substrate solution: a solution containing 45 μmol/L ATP and 500 nmol/L Fluorescein-Poly GT (Invitrogen) was prepared by using the reaction buffer solution.
Detection solution: a solution containing 20 mM EDTA and 4 nM PY20 (Invitrogen) was prepared by using Dilution B (Invitrogen).
A 10 mmol/L DMSO solution of the test compound was dispensed into a 96-well plate (Nunc), and, furthermore, a 3-fold dilution series was prepared using DMSO. In each well of the 96-well plate for measurement, 5 μL each of the reaction buffer solution containing DMSO was added to a Blank group and a medium group, and 5 μL of the test substance solution was added to the test substance group, respectively. Next, 10 μL/well of the reaction buffer solution was added to the Blank group, and 10 μL/well each of the enzyme solution was added to the medium group and the test compound group, followed by stirring at room temperature for 10 min. After the completion of stirring, 10 μL each of the substrate solution was added into each well, followed by stirring at room temperature with light shielded for one hour. After the completion of reaction, 25 μL each of the detection solution was added to each well, and stood still at room temperature with light shielded for 30 min. After standing sill, fluorescence intensity at 520 nm and 495 nm at the time of irradiation with exciting light of 340 nm was measured by using Analyst GT (Molecular Devices). The phosphorylation of the artificial substrate was quantified by Time-resolved Fluorescence Resonance Energy Transfer (TR-FRET). TR-FRET ratio was calculated by dividing 520 nm fluorescence signal by 495 nm fluorescence signal for each well, and the inhibition rate (%) in the test compound group was calculated based on the following mathematical formula. Inhibition rate (%)=[1−(TR-FRET ratio of test compound group−A)/(B−A)×100 [Math. 1] A: average value of TR-FRET ratios of Blank group B: average value of TR-FRET ratios of medium group
Values of 50% inhibition rate (IC50 values) of the test compound were calculated from the inhibition curve based on the inhibition rate of the test compounds in each concentration.

Ba/F3 Axl = target: T2, Ba/F3 Axl (Homo sapiens, UniProt P30530); assay: Proliferation suppression rate using mouse pro-B cell line (Ba/F3 Axl) stably expressing Axl (CellTiter-Glo); type: cell-based; settings: Ba/F3 Axl cells, 48 hours, read-out: IC50 value of proliferation suppression, Ba/F3 Axl
T2 sequence (P30530 1-894): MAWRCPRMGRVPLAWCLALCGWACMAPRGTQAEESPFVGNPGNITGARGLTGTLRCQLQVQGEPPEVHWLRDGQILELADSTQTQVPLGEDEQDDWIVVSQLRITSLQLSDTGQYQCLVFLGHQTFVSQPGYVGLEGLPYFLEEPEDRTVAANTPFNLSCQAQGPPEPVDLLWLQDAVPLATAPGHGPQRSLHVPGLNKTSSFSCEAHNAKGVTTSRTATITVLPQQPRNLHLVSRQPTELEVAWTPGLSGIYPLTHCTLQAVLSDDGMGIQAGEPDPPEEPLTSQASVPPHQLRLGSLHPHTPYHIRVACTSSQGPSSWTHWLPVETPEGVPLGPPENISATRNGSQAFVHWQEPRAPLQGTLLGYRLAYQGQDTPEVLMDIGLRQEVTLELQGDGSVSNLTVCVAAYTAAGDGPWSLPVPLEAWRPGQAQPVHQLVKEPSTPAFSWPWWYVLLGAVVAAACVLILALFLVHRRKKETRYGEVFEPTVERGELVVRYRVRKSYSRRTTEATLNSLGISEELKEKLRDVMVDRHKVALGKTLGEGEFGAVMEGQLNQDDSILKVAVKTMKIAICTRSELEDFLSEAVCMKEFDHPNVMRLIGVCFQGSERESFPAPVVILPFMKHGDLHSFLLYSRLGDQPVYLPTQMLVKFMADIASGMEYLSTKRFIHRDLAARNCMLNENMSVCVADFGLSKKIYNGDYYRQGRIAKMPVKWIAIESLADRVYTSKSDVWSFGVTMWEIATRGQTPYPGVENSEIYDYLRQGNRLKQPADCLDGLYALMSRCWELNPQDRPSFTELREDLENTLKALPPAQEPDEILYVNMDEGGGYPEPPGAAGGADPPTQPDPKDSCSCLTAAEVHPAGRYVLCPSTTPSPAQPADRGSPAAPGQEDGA
Procedure: A 0.1 mmol/L DMSO solution of the test compound was dispensed into a 96-well plate, and a 3-fold dilution series was prepared using DMSO. DMSO solutions of test compounds, having various concentrations, were further 500-fold diluted with a RPMI1640 medium (containing 10% HI-FBS, 1% penicillin) and a diluted solution of the test compound having […] with respect to the final concentration was prepared. In each well of the 96-well plate (BD Biosciences) for measurement, 50 μL of a RPMI medium was added to the Blank group, 50 μL of a RPMI medium containing 0.2% DMSO was added to the medium group, and 50 μL of the diluted solution of the test compound was added to the test compound group, respectively. Ba/F3 Axl was diluted with a medium to have a density of 2×10^5 cells/mL to prepare a cell suspension. In each well of the 96-well plate for measurement, 50 μL each of the RPMI medium was added to the Blank group, and 50 μL each of the cell suspension to the medium group and the test compound group, respectively, and the groups were stood still at 37° C. at 5% CO2 for 48 hours. After standing still, Relative Light Unit (RLU) was measured by using CELLTITER-GLO (registered trademark) LUMINESCENT CELL VIABILITY ASSAY (Promega). The measurement was carried out according to the attached instruction. To each well, 100 μL each of light-emitting solution was added. The plate was stirred at room temperature for 3 min and then stool still at room temperature with light shielded for 10 min, and RLU was measured by using Microplate Reader (SpectraMax M5e, Molecular Devices). The average values of RLU of the Blank group and the medium group were respectively calculated, and the proliferation suppression rate of the test compound group was calculated. Proliferation suppression rate (%)={1−(RLU of test compound group−A)/(B−A)}×100 [Math. 2] A: average value of RLU of Blank group B: average value of RLU of medium group
A value of 50% inhibition rate (IC50 value) of the test compound was calculated from the inhibition curve based on the inhibition rate in each concentration of the test compound.

KDR kinase = KDR kinase (Homo sapiens, UniProt P35968); assay: Evaluation of kinase selectivity (KDR kinase IC50 versus Axl IC50, in vitro test); type: biochemical; settings: Axl selective inhibitory activity with respect to KDR kinase, ratio of IC50 values
Procedure: Similar to Biological Example 1, values of 50% inhibition rate (IC50 value) with respect to the KDR kinase of the test compound was measured. The Axl selective inhibitory activity of the test compound with respect to KDR kinase was calculated based on the above-mentioned ratio of the IC50 values. As the test compounds, for the compounds of the present invention, the compounds of Examples 21, 42, 66, and 28 were used, and for the comparative compounds, the compound of Example 74 (Comparative compound B) and the compound of Example 92 (Comparative compound C) described in Patent Literature 5, having the following structure, were used.

Sequence of KDR kinase (P35968 20-1356): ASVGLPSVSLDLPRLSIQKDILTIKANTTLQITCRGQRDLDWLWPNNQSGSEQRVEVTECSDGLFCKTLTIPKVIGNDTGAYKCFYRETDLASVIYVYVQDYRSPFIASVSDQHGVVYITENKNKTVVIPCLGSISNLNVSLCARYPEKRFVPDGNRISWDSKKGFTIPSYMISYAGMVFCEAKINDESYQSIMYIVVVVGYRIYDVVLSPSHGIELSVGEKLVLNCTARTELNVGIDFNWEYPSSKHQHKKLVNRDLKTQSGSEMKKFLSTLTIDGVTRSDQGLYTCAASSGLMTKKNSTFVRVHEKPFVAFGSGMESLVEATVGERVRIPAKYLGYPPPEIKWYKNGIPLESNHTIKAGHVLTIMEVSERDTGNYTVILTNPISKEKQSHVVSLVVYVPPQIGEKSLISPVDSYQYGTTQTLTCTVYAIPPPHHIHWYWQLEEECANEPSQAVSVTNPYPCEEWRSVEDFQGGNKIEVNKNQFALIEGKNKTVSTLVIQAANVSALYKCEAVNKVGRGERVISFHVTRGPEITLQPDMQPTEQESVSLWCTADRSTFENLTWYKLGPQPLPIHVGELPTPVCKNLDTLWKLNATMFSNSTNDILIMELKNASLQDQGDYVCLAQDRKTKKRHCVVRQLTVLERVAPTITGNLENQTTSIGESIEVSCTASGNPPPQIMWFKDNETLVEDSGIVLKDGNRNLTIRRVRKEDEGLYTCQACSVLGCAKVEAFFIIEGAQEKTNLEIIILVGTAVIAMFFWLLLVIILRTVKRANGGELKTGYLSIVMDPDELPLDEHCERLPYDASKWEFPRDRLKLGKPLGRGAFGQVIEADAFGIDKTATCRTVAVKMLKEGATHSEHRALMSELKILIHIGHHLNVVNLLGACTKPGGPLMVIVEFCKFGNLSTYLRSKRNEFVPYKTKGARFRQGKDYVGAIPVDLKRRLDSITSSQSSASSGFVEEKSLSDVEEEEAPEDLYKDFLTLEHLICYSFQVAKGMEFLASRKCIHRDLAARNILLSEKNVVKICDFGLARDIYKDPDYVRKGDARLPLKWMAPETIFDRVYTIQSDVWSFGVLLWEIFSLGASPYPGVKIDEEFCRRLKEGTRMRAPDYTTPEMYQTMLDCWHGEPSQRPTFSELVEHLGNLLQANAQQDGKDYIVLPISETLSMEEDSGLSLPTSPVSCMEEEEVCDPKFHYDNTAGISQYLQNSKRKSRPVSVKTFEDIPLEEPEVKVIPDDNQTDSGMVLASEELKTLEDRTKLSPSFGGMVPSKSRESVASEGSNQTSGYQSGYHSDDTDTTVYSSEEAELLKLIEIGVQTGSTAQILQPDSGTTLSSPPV

| Compound | IC50 (Axl enzyme) | GI50 (Ba/F3 Axl) | KDR [IC50]/Ax1 [IC50] (KDR kinase) |
| --- | --- | --- | --- |
| COc1cc2nccc(Oc3ccc(NC(=O)c4cc5ccccc5[nH]c4=O)cc3)c2cc1OC [Comparative compound A, reference compound] | > 10000 nM | > 10000 nM |  |
| COc1cc2c(Oc3ccc(NC(=O)c4cccc5cccnc45)cc3F)ccnc2cc1OCCCN1CCOCC1 [Comparative compound B, reference compound] |  |  | about 0.2 times |
| COc1cc2c(Oc3ccc(NC(=O)c4ccnn(-c5ccc(F)cc5)c4=O)cn3)ccnc2cc1OCCCN1CCOCC1 [Comparative compound C, reference compound] |  |  | about 28 times |
| CC#CC(=O)N1CCc2cc(C(=O)Nc3ccc(Oc4ccnc5cc(OC)c(OC)cc45)cn3)c(=O)n(-c3ccccc3)c2C1 [Example 36, 7-(2-butynoyl)-N-{5-[(6,7-dimethoxy-4-quinolinyl)oxy]-2-pyridinyl}-2-oxo-1-phenyl-1,2,5,6,7,8-hexahydro-1,7-naphthyridine-3-carboxamide] | 1.5 nM | 0.47 nM |  |
| COc1cc2nccc(Oc3ccc(NC(=O)c4cc5ccc(N)cc5n(-c5ccccc5)c4=O)nc3)c2cc1OC [Example 73, 7-amino-N-{5-[(6,7-dimethoxy-4-quinolinyl)oxy]-2-pyridinyl}-2-oxo-1-phenyl-1,2-dihydro-3-quinolinecarboxamide] | 4 nM | 0.76 nM |  |
